For this experiment, the system named is collagen production induced by TGF-β (NHDF cells). Put plainly: Inhibitory effect on collagen production induced by TGF-β, [3H] proline uptake (NHDF cells). Conditions: TGF-β1 3 ng/ml; for inhibition at 3 µM / inhibition at 10 µM / inhibition at 1 µM: Homo sapiens, NHDF. The class given is cell-based, human. How it is done:
As an index of collagen production, the uptake of [^3H] proline was measured.
Using a 96-well microplate, normal human skin derived fibroblast (NHDF, 10^4/well) or human embryonic lung fibroblast (TIG-3, 10^4/well) were cultured in a 10% fetal calf serum (FCS)-containing Dulbecco's modified Eagle medium (DMEM) for one day. After removing the culture supernatant, the cells were washed once with a 0.1% bovine serum albumin (BSA)-containing DMEM medium and then cultured in the 0.1% bovine serum albumin (BSA)-containing DMEM medium for one day. After adding each of the test compounds in each concentration (1, 3, 10 μM), the cells were cultured and, after adding TGF-β1 (3 ng/ml) and [^3H] proline (18.5 kBq/well), the cells were further cultured for additional one day.
After removing the culture supernatant, the cells were washed twice with a phosphate buffer solution (PBS) and dissolved with 0.3M NaOH and 1% sodium dodecylsulfate (SDS), and then each protein fraction was precipitated with trichloroacetic acid (TCA) After the precipitate was filtered through a glass filter (GF/B) and washed, the quantity of [^3H] proline on the glass filter was measured by a liquid scintillation counter. The number of cells was measured by a cell growth measuring kit (XTT, Roche) and the uptake of [^3H] proline was corrected by the number of cells. Inhibitory ratio was calculated as compared with the case where a difference between the uptake of [^3H] proline with or without TGF-β1.

Each structure is given as a SMILES string. Structures can show the parent of a compound that is named as a salt.

One may read the inhibition as the change of the read-out against control, counted positive when it falls.

Take `CN(CCC(O)c1ccccc1)C(=O)/C=C/c1c(-c2ccc3c(c2)OCO3)n(C)c2ccccc12` (stereo not shown) [Example 112, (2E)-N-methyl-N-(3-hydroxy-3-phenylpropyl)-3-[1-methyl-2-(3,4-methylenedioxyphenyl)-1H-indol-3-yl]acrylamide]: the inhibition at 3 µM (3 μM) was 73%. Further, the inhibition at 10 µM (10 μM) stood at 143%.

On to `COc1cc2c(cc1OC)C(CC(=O)O)N(C(=O)/C=C/c1c(-c3ccccc3)n(C)c3ncccc13)CC2` (stereo not shown) [Example 124, {6,7-dimethoxy-2-[(2E)-3-(1-methyl-2-phenyl-1H-pyrrolo[2,3-b]pyridin-3-yl)prop-2-enoyl]-1,2,3,4-tetrahydroisoquinolin-1-yl}acetic acid], for which the “Inhibitory effect on collagen production induced by TGF-β (% inhibition)” value (“Inhibitory effect … (% inhibition)” below) (1 μM) came out at 21%. For the same molecule, for the setting “3 μM”, the inhibition at 3 µM was found to be 108%.

In the case of `CC1c2cc(O)c(O)cc2CCN1C(=O)/C=C/c1c(-c2ccccc2)n(C)c2cc3c(cc12)OCO3` (stereo not shown) [Example 117, 2-{(2E)-3-[1-methyl-2-phenyl-(5,6-methylenedioxy)-1H-indol-3-yl]prop-2-enoyl}-1-methyl-6,7-dihydroxy-1,2,3,4-tetrahydroisoquinoline], the “Inhibitory effect … (% inhibition)” value (3 μM) was found to be 82% and the “Inhibitory effect … (% inhibition)” value (10 μM) is reported as 140%.

Turning to `COc1ccc(CCN(C)C(=O)/C=C/c2c(-c3ccc4c(c3)OCO4)n(C)c3ccccc23)cc1OC` [Example 115, (2E)-N-methyl-N-[2-(3,4-dimethoxyphenyl)ethyl]-3-[1-methyl-2-(3,4-methylenedioxyphenyl)-1H-indol-3-yl]acrylamide], the inhibition at 3 µM (3 μM) stood at 84%. Moreover, under “10 μM”, the inhibition at 10 µM is 155%.

For `Cc1cnc2c(c1)c(C(=O)N1CCN(c3cnc(C(=O)NCCc4scnc4C)cn3)CC1)c(-c1ccccc1)n2C` [Example 148, 5-{4-[(1,5-dimethyl-2-phenyl-1H-pyrrolo[2,3-b]pyridin-3-yl)carbonyl]piperazin-1-yl}-N-[2-(4-methyl-1,3-thiazol-5-yl)ethyl]pyrazine-2-carboxamide trihydrochloride], the inhibition at 1 µM (1 μM) came out at 29%. For the setting “3 μM”, the inhibition at 3 µM was 53%.

Turning to `COc1cc2c(cc1OC)CN(C(=O)/C=C/c1c(-c3ccccc3)n(C)c3nccnc13)CC2` [Example 128, 2-[(2E)-3-(5-methyl-6-phenyl-5H-pyrrolo[2,3-b]pyrazin-7-yl)prop-2-enoyl]-6,7-dimethoxy-1,2,3,4-tetrahydroisoquinoline hydrochloride], the inhibition at 1 µM (1 μM) worked out at 61%. Moreover, for the setting “3 μM”, the inhibition at 3 µM came out at 76%.

For `COC(=O)CC1c2cc(OC)c(OC)cc2CCN1C(=O)/C=C/c1c(-c2ccccc2)n(C)c2ncccc12` (stereo not shown) [Example 133, Methyl {6,7-dimethoxy-2-[(2E)-3-(1-methyl-2-phenyl-1H-pyrrolo[2,3-b]pyridin-3-yl)prop-2-enoyl]-1,2,3,4-tetrahydroisoquinolin-1-yl}acetate hydrochloride], under “1 μM”, the inhibition at 1 µM was 57%. Moreover, the inhibition at 3 µM (3 μM) came out at 104%.

For `COc1cc2c(cc1OC)CN(C(=O)/C=C/c1c(-c3ccccc3)n(C)c3ncccc13)CC2` [Example 109, 2-[(2E)-3-(1-methyl-2-phenyl-1H-pyrrolo[2,3-b]pyridin-3-yl)prop-2-enoyl]-6,7-dimethoxy-1,2,3,4-tetrahydroisoquinoline hydrochloride], where the note is “1 μM”, the inhibition at 1 µM amounted to 50%. Further, under “3 μM”, the inhibition at 3 µM worked out at 76%. For the same molecule, the inhibition at 10 µM (10 μM) came to 135%.

For `COC(=O)c1ccc(-c2c(/C=C/C(=O)N3CCc4cc(OC)c(OC)cc4C3)c3cc(C)ccc3n2C)cc1` [Example 142, 2-{(2E)-3-[1,5-dimethyl-2-(4-carbomethoxyphenyl)-1H-indol-3-yl]prop-2-enoyl}-6,7-dimethoxy-1,2,3,4-tetrahydroisoquinoline], the inhibition at 1 µM (1 μM) turned out to be 65%. Moreover, the inhibition at 3 µM (3 μM) was found to be 130%.

For the molecule `Cc1ncsc1CCNC(=O)c1cnc(N2CCN(C(=O)c3c(-c4ccccc4)n(C)c4ccc(F)cc34)CC2)cn1` [Example 147, 5-{4-[(5-fluoro-1-methyl-2-phenyl-1H-indol-3-yl)carbonyl]piperazin-1-yl}-N-[2-(4-methyl-1,3-thiazol-5-yl)ethyl]pyrazine-2-carboxamide dihydrochloride], the inhibition at 1 µM (1 μM) was found to be 29%. The inhibition at 3 µM (3 μM) was 59%.

On to `Cc1ccc2c(c1)c(C(=O)N1CCN(c3cnc(C(=O)NCCc4ccc(O)cc4)cn3)CC1)c(-c1ccccc1)n2C` [Example 145, 5-{4-[(1,5-dimethyl-2-phenyl-1H-indol-3-yl)carbonyl]piperazin-1-yl}-N-[2-(4-hydroxyphenyl)ethyl]pyrazine-2-carboxamide hydrochloride], for which the inhibition at 1 µM (1 μM) was determined as 55%. Further, the inhibition at 3 µM (3 μM) was found to be 64%.

`COC(=O)c1ccc(-c2c(/C=C/C(=O)N3CCC(C(C)=O)(c4ccccc4)CC3)c3cc(C)ccc3n2C)cc1` [Example 141, 4-acetyl-1-{(2E)-3-[1,5-dimethyl-2-(4-carbomethoxyphenyl)-1H-indol-3-yl]prop-2-enoyl}-4-phenylpiperidine]: the inhibition at 1 µM (1 μM) worked out at 111%. In addition, the inhibition at 3 µM (3 μM) came to 114%.

Turning to `Cn1c(-c2ccccc2)c(/C=C/C(=O)N[C@@H]2c3ccccc3C[C@@H]2O)c2cc3c(cc21)OCO3` [Example 97, (2E)-N-[(1R, 2S)-2-hydroxy-2,3-dihydro-1H-inden-1-yl]-3-(1-methyl-2-phenyl-5,6-methylenedioxy-1H-indol-3-yl)acrylamide], under “1 μM”, the inhibition at 1 µM was 37%. Also, the inhibition at 3 µM (3 μM) worked out at 69%.

Turning to `CCOC(=O)C1CCCC1NC(=O)c1cnc(N2CCN(C(=O)c3c(-c4ccccc4)n(C)c4ccc(C)cc34)CC2)cn1` (stereo not shown) [Example 129, Ethyl 2-{N-[(5-{4-[(1,5-dimethyl-2-phenyl-1H-indol-3-yl)carbonyl]piperazin-1-yl}pyrazin-2-yl)carbonyl]amino}-1-cyclopentanecarboxylate], the inhibition at 1 µM (1 μM) came out at 75%. Further, under “3 μM”, the inhibition at 3 µM amounted to 73%.

In the case of `COc1cc2c(cc1OC)CN(C(=O)/C=C/c1c(-c3ccncc3)n(C)c3ncccc13)CC2` [Example 135, 2-{(2E)-3-[1-methyl-2-(4-pyridyl)-1H-pyrrolo[2,3-b]pyridin-3-yl]prop-2-enoyl}-6,7-dimethoxy-1,2,3,4-tetrahydroisoquinoline dihydrochloride], the inhibition at 1 µM (1 μM) was found to be 78%. Moreover, under “3 μM”, the inhibition at 3 µM is 110%.

Take `CCOC(=O)C1CCCCC1NC(=O)c1cnc(N2CCN(C(=O)c3c(-c4ccccc4)n(C)c4ccc(C)cc34)CC2)cn1` (stereo not shown) [Example 127, Ethyl 2-{N-[(5-{4-[(1,5-dimethyl-2-phenyl-1H-indol-3-yl)carbonyl]piperazin-1-yl}pyrazin-2-yl)carbonyl]amino}-1-cyclohexanecarboxylate]: the inhibition at 1 µM (1 μM) came out at 72%. Further, the inhibition at 3 µM (3 μM) is 78%.

Take `Cn1c(-c2ccccc2)c(/C=C/C(=O)NCC2CN(Cc3ccc(F)cc3)CCO2)c2ccccc21` (stereo not shown) [Example 30, (2E)-N-{[4-(4-fluorobenzyl)morpholin-2-yl]methyl}-3-(1-methyl-2-phenyl-1H-indol-3-yl)acrylamide hydrochloride]: the inhibition at 1 µM (1 μM) is 41%. The inhibition at 3 µM (3 μM) is 94%. The inhibition at 10 µM (10 μM) is 148%.

Take `CN1CCC(N(C)C(=O)/C=C/c2c(-c3ccccc3)n(C)c3ncccc23)CC1` [Example 122, (2E)-N-methyl-N-(1-methyl-piperidin-4-yl)-3-(1-methyl-2-phenyl-1H-pyrrolo[2,3-b]pyridin-3-yl)acrylamide]: the inhibition at 1 µM (1 μM) turned out to be 20%. The inhibition at 3 µM (3 μM) turned out to be 57%.

For `COCn1c(-c2ccccc2)c(/C=C/C(=O)N2CCc3cc(OC)c(OC)cc3C2)c2cccnc21` [Example 139, 2-[(2E)-3-(1-methoxymethyl-2-phenyl-1H-pyrrolo[2,3-b]pyridin-3-yl)prop-2-enoyl]-6,7-dimethoxy-1,2,3,4-tetrahydroisoquinoline hydrochloride], the inhibition at 1 µM (1 μM) stood at 37%. In addition, the inhibition at 3 µM (3 μM) came out at 54%.

In the case of `CN(CCC(O)c1ccccc1)C(=O)/C=C/c1c(-c2ccc(F)cc2)n(C)c2ccccc12` (stereo not shown) [Example 110, (2E)-N-methyl-N-(3-hydroxy-3-phenylpropyl)-3-[1-methyl-2-(4-fluorophenyl)-1H-indol-3-yl]acrylamide], where the note is “3 μM”, the inhibition at 3 µM is 66%. In addition, the inhibition at 10 µM (10 μM) turned out to be 143%.

On to `COC(=O)c1ccc(-c2c(/C=C/C(=O)N(C)C3CCN(C)CC3)c3cc(C)ccc3n2C)cc1` [Example 143, (2E)-N-methyl-N-(1-methylpiperidin-4-yl)-3-[1,5-dimethyl-2-(4-carbomethoxyphenyl)-1H-indol-3-yl]acrylamide], for which, where the note is “1 μM”, the inhibition at 1 µM was determined as 42%. Also, the inhibition at 3 µM (3 μM) turned out to be 104%.

With `COc1cc2c(cc1OC)CN(C(=O)/C=C/c1c(-c3ccccc3)n(C)c3ncc(C)cc13)CC2` [Example 123, 2-[(2E)-3-(1,5-dimethyl-2-phenyl-1H-pyrrolo[2,3-b]pyridin-3-yl)prop-2-enoyl]-6,7-dimethoxy-1,2,3,4-tetrahydroisoquinoline hydrochloride], for the setting “1 μM”, the inhibition at 1 µM came to 55%. For the same molecule, the inhibition at 3 µM (3 μM) was determined as 125%.

The record behind these values is US20050014942A1, “Amide derivatives and drugs” (priority 2001, published 2005).
